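96-well plates; 48 h exposure; 5 concentrations. Endpoints by linear interpolation between flanking doses. Not reached: highest tested concentration assigned. Definition used: TGI = concentration required for complete inhibition of growth.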
Tests used:
Test in all cases: DTP human tumour cell line panel, 48 h
MDA-MB-435 = system: MDA-MB-435
HCT-116 colon = system: HCT-116 colon
OVCAR-8 ovarian = system: OVCAR-8 ovarian
HCC-2998 colon = system: HCC-2998 colon
NCI-H226 lung = system: NCI-H226 lung
NCI-H23 lung = system: NCI-H23 lung
SNB-19 CNS = system: SNB-19 CNS
OVCAR-5 ovarian = system: OVCAR-5 ovarian
SK-MEL-28 melanoma = system: SK-MEL-28 melanoma
M14 melanoma = system: M14 melanoma
SF-268 CNS = system: SF-268 CNS
HOP-92 NSCLC = system: HOP-92 NSCLC
PC-3 prostate = system: PC-3 prostate
UO-31 renal = system: UO-31 renal
SF-539 CNS = system: SF-539 CNS
SK-OV-3 ovarian = system: SK-OV-3 ovarian
HT29 colon = system: HT29 colon
K-562 leukemia = system: K-562 leukemia
SN12C renal = system: SN12C renal
SK-MEL-2 melanoma = system: SK-MEL-2 melanoma
786-0 renal = system: 786-0 renal
DU-145 prostate = system: DU-145 prostate
MALME-3M melanoma = system: MALME-3M melanoma
RPMI-8226 leukemia = system: RPMI-8226 leukemia
NCI/ADR-RES ovarian = system: NCI/ADR-RES ovarian
KM12 colon = system: KM12 colon
MCF7 breast = system: MCF7 breast
TK-10 renal = system: TK-10 renal
ACHN renal = system: ACHN renal
SW-620 colon = system: SW-620 colon
BT-549 breast = system: BT-549 breast
EKVX NSCLC = system: EKVX NSCLC
NCI-H522 lung = system: NCI-H522 lung
MDA-MB-231 breast = system: MDA-MB-231 breast
CCRF-CEM leukemia = system: CCRF-CEM leukemia
MOLT-4 leukemia = system: MOLT-4 leukemia
COLO 205 colon = system: COLO 205 colon
CAKI-1 renal = system: CAKI-1 renal
SF-295 CNS = system: SF-295 CNS
RXF 393 renal = system: RXF 393 renal
UACC-257 melanoma = system: UACC-257 melanoma
OVCAR-4 ovarian = system: OVCAR-4 ovarian
IGROV1 ovarian = system: IGROV1 ovarian
HOP-62 NSCLC = system: HOP-62 NSCLC
NCI-H460 lung = system: NCI-H460 lung
U251 CNS = system: U251 CNS
MDA-N = system: MDA-N
A498 renal = system: A498 renal
HS 578T breast = system: HS 578T breast
A549 NSCLC = system: A549 NSCLC
HCT-15 colon = system: HCT-15 colon
SNB-75 CNS = system: SNB-75 CNS
OVCAR-3 ovarian = system: OVCAR-3 ovarian
T-47D breast = system: T-47D breast
LOX IMVI melanoma = system: LOX IMVI melanoma
SK-MEL-5 melanoma = system: SK-MEL-5 melanoma
UACC-62 melanoma = system: UACC-62 melanoma

Measured: TGI

CN(CCc1ccc(Br)cc1)CCN1CCCCC1
54.4 µM: MCF7 breast
61.4 µM: SF-295 CNS
85.4 µM: SNB-75 CNS
64.8 µM: SF-539 CNS
51.7 µM: NCI-H522 lung
38.8 µM: HT29 colon
41.5 µM: K-562 leukemia
95.3 µM: MDA-MB-435
63.2 µM: A498 renal
94.2 µM: LOX IMVI melanoma
64.3 µM: SK-MEL-2 melanoma
52.1 µM: SK-MEL-28 melanoma
96.1 µM: BT-549 breast
52.6 µM: HS 578T breast
41.9 µM: KM12 colon
32.4 µM: COLO 205 colon
45.8 µM: M14 melanoma
88 µM: MDA-N
82.8 µM: HOP-92 NSCLC
36.6 µM: CCRF-CEM leukemia
48.7 µM: MALME-3M melanoma
28.2 µM: SK-MEL-5 melanoma
not listed: UACC-62 melanoma
> 100 µM: all other assays above

O=[N+]([O-])C(/C(Cl)=C(/Cl)N1CCCCC1)=C1\NCCO1
not listed: HOP-92 NSCLC | K-562 leukemia | TK-10 renal | NCI-H522 lung | RXF 393 renal | IGROV1 ovarian | LOX IMVI melanoma | SK-MEL-5 melanoma
> 100 µM: all other assays above
